# Like-named read-outs stand apart in the source and are kept apart here.
# Assays:
# [1] = test system: LXFA 737; experiment: 2D proliferation assay (CellTiter-Blue); conditions: read-out: Relative docetaxel IC50
# [2] = test system: DU-145; experiment: 3D clonogenic assay (soft agar); conditions: Homo sapiens, DU-145, read-out: Docetaxel IC50, DU-145, 3D clonogenic assay
# [3] = test system: MAXFTN MX1; experiment: 2D proliferation assay (CellTiter-Blue); conditions: read-out: Relative docetaxel IC50
# [4] = test system: 22Rv1DOC8; experiment: 2D proliferation assay, docetaxel-resistant subline; format: cell-based, human; conditions: for IC50: Homo sapiens
# [5] = test system: PC-3M; experiment: 2D proliferation assay (CellTiter-Blue); conditions: Homo sapiens, read-out: Relative docetaxel IC50
# [6] = test system: PRXF DU-145; experiment: 2D proliferation assay (CellTiter-Blue); format: cell-based, human; conditions: Homo sapiens
# [7] = test system: LXFA EKVX; experiment: cells; conditions: Homo sapiens, read-out: Relative docetaxel IC50
# [8] = test system: PRXF 22Rv1; experiment: 2D proliferation assay (CellTiter-Blue); format: cell-based; conditions: Homo sapiens
# [9] = test system: MAXFTN CAL-51; experiment: cells; conditions: Homo sapiens, CAL-51, read-out: Relative docetaxel IC50
# [10] = test system: 15 tumor cell lines; experiment: 2D proliferation assay (CellTiter-Blue), panel of 15 tumor cell lines; conditions: read-out: mean relative IC50
# [11] = test system: OVXF NCI-ADR-RES; experiment: cells; conditions: Homo sapiens, read-out: Relative docetaxel IC50
# [12] = test system: PC-3; experiment: 2D proliferation assay (CellTiter-Blue); format: cell-based; conditions: Homo sapiens
# [13] = test system: 22Rv1; experiment: 3D clonogenic assay (soft agar); conditions: Homo sapiens, 22Rv1, read-out: Docetaxel IC50, 22Rv1, 3D clonogenic assay
# [14] = test system: 22Rv1DOC8; experiment: 3D clonogenic assay (soft agar); format: cell-based, human; conditions: for Relative resistance: 22Rv1DOC8 vs 22Rv1; for IC50: Homo sapiens
# [15] = test system: DU-145DOC10; experiment: 2D proliferation assay, docetaxel-resistant subline; format: cell-based, human; conditions: for IC50: Homo sapiens
# [16] = test system: MAXFTN MCF 10A; experiment: cells; conditions: Homo sapiens, read-out: Relative docetaxel IC50
# [17] = test system: Caco-2 cell monolayers; experiment: Bidirectional permeability assay across Caco-2 monolayers; format: in vitro ADME, human; conditions: for ER: inhibitor where named: valspodar 10 μM or ritonavir 50 μM
# Procedure: (§1) Samples were analyzed using LC-MS/MS.
# (§2) The medium was changed 24 h before the experiment. […] The bioanalysis of docetaxel was performed with the .
# (§3) The following equation was used to calculate apparent permeability coefficient (Papp):
# (§4) dQ: amount of transporter test drug in pmol; dT: incubation time in seconds; A: surface of porous membrane in cm^2 (standard: 0.7); C0: initial concentration of test agent in the donor chamber in pmol/cm^3.
# [18] = as above; format: in vitro ADME, human; conditions: human
# Procedure: as §1, §2, §3, §4
# [19] = test system: DU-145DOC10; experiment: 3D clonogenic assay (soft agar); format: cell-based, human; conditions: for Relative resistance: DU-145DOC10 vs DU-145
# [20] = test system: OVXF EFO-27; experiment: 2D proliferation assay (CellTiter-Blue); conditions: Homo sapiens, EFO-27, read-out: Relative docetaxel IC50
# [21] = test system: GXA NUGC-4; experiment: cells; conditions: Homo sapiens, NUGC-4, read-out: Relative docetaxel IC50
# [22] = test system: OVXF 899; experiment: cells; conditions: read-out: Relative docetaxel IC50
# [23] = test system: PC-3DOC3; experiment: 2D proliferation assay, docetaxel-exposed subline; format: cell-based, human
# [24] = test system: GXA 3011; experiment: cells; conditions: read-out: Relative docetaxel IC50
# [25] = test system: MAXFLB MCF7; experiment: cells; conditions: Homo sapiens, MCF7, read-out: Relative docetaxel IC50
# [26] = without elacridar (elacridar experiment)
# [27] = without ritonavir (ritonavir experiment)
# [28] = docetaxel + elacridar 1 µM, 3D clonogenic assay
# [29] = docetaxel + ritonavir 10 µM, 3D clonogenic assay
# [30] = docetaxel without elacridar, 3D clonogenic assay
# [31] = docetaxel without ritonavir, 3D clonogenic assay
smiles,measurement,setting,value
CC(=O)O[C@@]12CO[C@@H]1C[C@H](O)[C@@]1(C)C(=O)[C@H](O)C3=C(C)[C@@H](OC(=O)[C@H](O)[C@@H](NC(=O)OC(C)(C)C)c4ccccc4)C[C@@](O)([C@@H](OC(=O)c4ccccc4)[C@H]21)C3(C)C [Docetaxel],IC50,[1],2.2 nM
same,IC50,[2]; + ritonavir 10 µM,1.7 nM
same,IC50,[2]; [26],1.1 nM
same,IC50,[2]; [27],2.9 nM
same,IC50,[3],1.9 nM
same,Relative resistance,"[4]; 22Rv1-DOC8 vs 22Rv1, 2D proliferation assay",133.6
same,IC50,"[4]; 22Rv1-DOC8 (passage 8 nM docetaxel), 2D proliferation assay, read-out: Docetaxel IC50",134 nM
same,IC50,"[4]; 22Rv1DOC8, 2D culture, Figure 1, read-out: IC 50",134 nM
same,IC50,[5],2.4 nM
same,IC50,"[6]; DU-145, DU-145, 2D culture, Figure 1, read-out: IC 50",0.81 nM
same,IC50,"[6]; DU-145, DU-145 parental, 2D proliferation assay, read-out: Docetaxel IC50",0.8 nM
same,IC50,"[6]; DU-145, PRXF DU-145, 2D proliferation assay, read-out: Relative docetaxel IC50",0.9 nM
same,IC50,[7],1.9 nM
same,IC50,"[8]; 22Rv1, 2D culture, Figure 1, read-out: IC 50",0.98 nM
same,IC50,"[8]; 22Rv1 parental, 2D proliferation assay, read-out: Docetaxel IC50",1 nM
same,IC50,"[8]; PRXF 22Rv1, 2D proliferation assay, read-out: Relative docetaxel IC50",1.5 nM
same,IC50,[9],1.7 nM
same,IC50,[10],2.6 nM
same,IC50,[11],> 100 nM
same,IC50,"[12]; PC-3, read-out: Relative docetaxel IC50",1.9 nM
same,IC50,"[12]; PC-3 parental, read-out: Docetaxel IC50",1.1 nM
same,IC50,[13]; + ritonavir 10 µM,1.8 nM
same,IC50,[13]; [26],1.3 nM
same,IC50,[13]; [27],1.3 nM
same,fold decrease of relative IC50 of docetaxel by elacridar,"[14]; 22Rv1DOC8, elacridar 1 µM as printed (lower of two concentrations), 3D clonogenic assay",91 fold
same,fold decrease of relative IC50 of docetaxel by elacridar,"[14]; 22Rv1DOC8, elacridar 10 µM as printed (higher of two concentrations), 3D clonogenic assay",116 fold
same,fold decrease of docetaxel IC50 by ritonavir,"[14]; 22Rv1DOC8, ritonavir 32 μM, 3D clonogenic assay",84 fold
same,Relative resistance,[14]; [28],1.0
same,Relative resistance,[14]; [29],35.5
same,Relative resistance,"[14]; docetaxel + ritonavir 10 µM, 3D clonogenic assay, listed as docetaxel",36
same,Relative resistance,"[14]; docetaxel + ritonavir 32 µM, 3D clonogenic assay",2.3
same,Relative resistance,[14]; [30],103.1
same,Relative resistance,[14]; [31],42.0
same,IC50,"[14]; 22Rv1DOC8, 3D clonogenic assay, + elacridar 1 µM, read-out: Docetaxel IC50",1.3 nM
same,IC50,"[14]; 22Rv1DOC8, 3D clonogenic assay, + ritonavir 10 µM, read-out: Docetaxel IC50",46.2 nM
same,IC50,"[14]; 22Rv1DOC8, 3D clonogenic assay, + ritonavir 32 µM, read-out: Docetaxel IC50",3 nM
same,IC50,"[14]; 22Rv1DOC8, 3D clonogenic assay, without elacridar (elacridar experiment), read-out: Docetaxel IC50",134 nM
same,IC50,"[14]; 22Rv1DOC8, 3D clonogenic assay, without ritonavir (32 μM ritonavir experiment, Figure 5), read-out: relative IC50 value of docetaxel",219 nM
same,IC50,"[14]; 22Rv1DOC8, 3D clonogenic assay, without ritonavir (ritonavir experiment), read-out: Docetaxel IC50",54.6 nM
same,IC50,"[14]; 22Rv1DOC8, docetaxel alone, Figure 5A, read-out: IC 50",224 nM
same,Relative resistance,"[15]; DU-145DOC10 vs DU-145, 2D proliferation assay",22.3
same,IC50,"[15]; DU-145DOC10 (passage 10 nM docetaxel), 2D proliferation assay, read-out: Docetaxel IC50",17.8 nM
same,IC50,"[15]; DU-145DOC10, 2D culture, Figure 1, read-out: IC 50",17.8 nM
same,IC50,[16],0.7 nM
same,ER values,"[17]; both at 5 and 10 μM docetaxel, no inhibitor",> 2
same,ER,"[17]; docetaxel 5 μM, incubation 60 min",69.46 ± 13.24
same,ER,"[17]; docetaxel 5 μM, incubation 120 min",43.85 ± 3.80
same,ER,"[17]; docetaxel 10 μM, incubation 120 min",32.66 ± 5.35
same,"Papp A→B at 60 min, 5 μM",[18]; Caco-2,0.29 ± 0.06 ×10⁻⁶ cm/s
same,"Papp A→B at 60 min, 10 μM",[18]; Caco-2,0.66 ± 0.02 ×10⁻⁶ cm/s
same,"Papp A→B at 120 min, 5 μM",[18]; Caco-2,0.81 ± 0.06 ×10⁻⁶ cm/s
same,"Papp A→B at 120 min, 10 μM",[18]; Caco-2,0.91 ± 0.15 ×10⁻⁶ cm/s
same,"Papp B→A at 60 min, 5 μM",[18]; Caco-2,20.3 ± 0.25 ×10⁻⁶ cm/s
same,"Papp B→A at 60 min, 10 μM",[18]; Caco-2,21 ± 0.78 ×10⁻⁶ cm/s
same,"Papp B→A at 120 min, 5 μM",[18]; Caco-2,35.4 ± 1.83 ×10⁻⁶ cm/s
same,"Papp B→A at 120 min, 10 μM",[18]; Caco-2,29.6 ± 0.8 ×10⁻⁶ cm/s
same,"efflux ratio at 60 min, 5 μM","[18]; Caco-2, docetaxel 5 μM, incubation 60 min, inhibitor where named: valspodar 10 μM or ritonavir 50 μM, read-out: ER",69.5
same,"efflux ratio at 120 min, 5 μM","[18]; Caco-2, docetaxel 5 μM, incubation 120 min, inhibitor where named: valspodar 10 μM or ritonavir 50 μM, read-out: ER",43.9
same,"efflux ratio at 60 min, 10 μM","[18]; Caco-2, docetaxel 10 μM, incubation 60 min, inhibitor where named: valspodar 10 μM or ritonavir 50 μM, read-out: ER",31.8 ± 1.54
same,"efflux ratio at 120 min, 10 μM","[18]; Caco-2, docetaxel 10 μM, incubation 120 min, inhibitor where named: valspodar 10 μM or ritonavir 50 μM, read-out: ER",32.7
same,IC50,"[19]; DU-145DOC10, 3D clonogenic assay, without elacridar (elacridar experiment), read-out: Docetaxel IC50",11.7 nM
same,fold decrease of relative IC50 of docetaxel by elacridar,"[19]; DU-145DOC10, elacridar 1 µM as printed (lower of two concentrations), 3D clonogenic assay",6 fold
same,fold decrease of relative IC50 of docetaxel by elacridar,"[19]; DU-145DOC10, elacridar 10 µM as printed (higher of two concentrations), 3D clonogenic assay",7.1 fold
same,fold lower docetaxel IC50 on addition of ritonavir,"[19]; DU-145DOC10, ritonavir 10 µM, 3D clonogenic assay",3.4 fold
same,Relative resistance,[19]; [28],1.5
same,Relative resistance,[19]; [29],1.0
same,Relative resistance,[19]; [30],10.6
same,Relative resistance,[19]; [31],3.3
same,IC50,"[19]; Homo sapiens, DU-145DOC10, 3D clonogenic assay, + elacridar 1 µM, read-out: Docetaxel IC50",1.6 nM
same,IC50,"[19]; Homo sapiens, DU-145DOC10, 3D clonogenic assay, + elacridar, first of two values both printed as 1 μM (Figure 6 legend), read-out: Docetaxel IC50",1.9 nM
same,IC50,"[19]; Homo sapiens, DU-145DOC10, 3D clonogenic assay, + ritonavir 10 µM, read-out: Docetaxel IC50",2.8 nM
same,IC50,"[19]; Homo sapiens, DU-145DOC10, 3D clonogenic assay, without elacridar (elacridar experiment), read-out: Docetaxel IC50",11.4 nM
same,IC50,"[19]; Homo sapiens, DU-145DOC10, 3D clonogenic assay, without ritonavir (ritonavir experiment), read-out: Docetaxel IC50",9.5 nM
same,IC50,"[19]; Homo sapiens, DU-145DOC10, docetaxel alone, Figure 4A, read-out: IC 50",9.37 nM
same,IC50,"[19]; Homo sapiens, DU-145DOC10, docetaxel alone, Figure 6A, read-out: IC 50",11.4 nM
same,IC50,[20],0.7 nM
same,IC50,[21],5.5 nM
same,IC50,[22],20.2 nM
same,IC50,"[23]; Homo sapiens, PC-3DOC3 (passage 2 nM docetaxel)",4.4 nM
same,Relative resistance,[23]; PC-3DOC3 vs PC-3,4.0
same,IC50,[24],0.5 nM
same,IC50,[25],1.1 nM

# Source: publication PMC10838382 (Cancer Drug Resistance, 2024)
